System: pilocarpine-evoked salivation
Assay: Inhalation guinea pig salivation assay
Type: in vivo
Description: Inhalation Guinea Pig Salivation Assay
Guinea pigs (Charles River, Wilmington, Mass.) weighing 200–350 g were acclimated to the in-house guinea pig colony for at least 3 days following arrival. Test compound or vehicle were dosed via inhalation (IH) over a 10 minute time period in a pie shaped dosing chamber (R&S Molds, San Carlos, Calif.). Test solutions were dissolved in sterile water and delivered using a nebulizer filled with 5.0 mL of dosing solution. Guinea pigs were restrained in the inhalation chamber for 30 minutes. During this time, guinea pigs were restricted to an area of approximately 110 sq. cm. […] Upon completion of nebulization, guinea pigs were evaluated at 1.5, 6, 12, 24, 48, or 72 hrs after treatment.
Guinea pigs were anesthetized one hour before testing with an intramuscular (IM) injection of a mixture of ketamine 43.75 mg/kg, xylazine 3.5 mg/kg, and acepromazine 1.05 mg/kg at an 0.88 mL/kg volume. […] Saliva was collected for 10 minutes, at which point the gauze pad was weighed and the difference in weight recorded to determine the amount of accumulated saliva (in mg). The mean amount of saliva collected for animals receiving the vehicle and each dose of test compound was calculated. […] Results were calculated using result means (n=3 or greater). Confidence intervals (95%) were calculated for each dose at each time point using two-way ANOVA. […]

## CNCC(=O)NCCCCCN1CC[C@@H](C(C(N)=O)(c2ccccc2)c2ccccc2)C1 [Example 1]
  apparent lung selectivity index (ratio of anti-sialagogue ID50 to bronchoprotective ID50): greater than 5

Source: patent publication US7208515B2, “Diphenylmethyl compounds useful as muscarinic receptor antagonists” (Theravance, Inc., priority 2004, dated 2007)
